Assay results published in patent publication US4681966A, “Intermediate for thiol based collagenase inhibitors” (G. D. Searle & Co., priority 1986, dated 1987).

Target: T1, Human Rheumatoid Synovial collagenase (Homo sapiens, UniProt P03956)
T1 construct: Synovial collagenase; from tissue; host or cells: human rheumatoid synovium (from the enzyme's printed name)
T1 sequence (P03956 100-469): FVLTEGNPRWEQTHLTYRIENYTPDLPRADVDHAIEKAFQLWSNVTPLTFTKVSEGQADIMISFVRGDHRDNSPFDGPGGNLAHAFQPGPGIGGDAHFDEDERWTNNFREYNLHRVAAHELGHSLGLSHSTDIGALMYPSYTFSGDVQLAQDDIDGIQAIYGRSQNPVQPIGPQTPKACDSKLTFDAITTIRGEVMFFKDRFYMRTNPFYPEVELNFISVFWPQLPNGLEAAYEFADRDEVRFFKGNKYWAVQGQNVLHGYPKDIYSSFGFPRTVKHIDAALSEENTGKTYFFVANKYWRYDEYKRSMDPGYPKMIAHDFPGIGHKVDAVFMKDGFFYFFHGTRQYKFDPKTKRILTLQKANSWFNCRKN
Experiment: Inhibition of collagenase: acetyl 14C collagen degradation (Cawston and Barrett), concentration effecting 50% inhibition
Type: biochemical
Conditions: Table 3; comparison R1 = H vs CH3; 37° C., 16 hours, pH 7.6; read-out: IC50 against human rheumatoid sinovial [collagenase]
Experimental: This was determined following the procedure of Cawston and Barrett, Anal. Biochem,. 99, 340-345 (1979) whereby the 1 mM of the inhibitor being tested or dilutions thereof are incubated at 37° C. for 16 hours with native collagen and collagenase (buffered with Tris HCl--CaCl2; pH 7.6). The collagen is acetyl ^14 C collagen. The samples are centrifuged to sediment undigested collagen and an aliquot of the radiactive supernatant removed for assay on a scintillation counter as a measure of hydrolysis. The collagenase activity in the presence of 1 mM inhibitor, or a dilution thereof, is compared to activity in a control devoid of inhibitor and the results reported as that inhibitor concentration effecting 50% inhibition of the collagenase.
This was determined following the procedure of Cawston and Barrett, Anal. Biochem., 99, 340-345 (1979) whereby the 1 mM of the inhibitor being tested or dilutions thereof are incubated at 37° C. for 16 hours with native collagen and collagenase (buffered with Tris HCl--CaCl2; pH 7.6). The collagen is acetyl […] collagen. The samples are centrifuged to sediment undigested collagen and an aliquot of the radioactive supernatant removed for assay on a scintillation counter as a measure of hydrolysis. […]

IC50: 0.45 µM
SMILES: CNC(=O)[C@@H](NC(=O)C(CC(C)C)C(C)S)[C@@H](C)OCc1ccccc1 (stereo partly drawn) [Example 6 A, N-[2-(1-Mercaptoethyl)-4-methylpentanoyl]-O-benzyl-L-threonine N-Methylamide]
